10 compounds from ChEMBL document CHEMBL1201862, “PubChem BioAssay data set” (2004) can be followed below.

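Protocol summary: plate cells (96-well), add compound at 5 concentrations, incubate 48 h, interpolate endpoints linearly. Abbreviation: GI50, concentration required for 50% inhibition of growth.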 Activity calls are given as the source filed them. Cut-off read from the data, not from the text of the source: active = GI50 up to about 1.1 µM and inactive = higher.

Some test systems named below: BT-549; COLO 205; EKVX; HCC 2998; NCI/ADR-RES; NCI-H23; SF-539; NCI-H522; NCI-H226; CAKI-1; HOP-92; SNB-75; OVCAR-8; MDA-MB-435; LOX IMVI; ACHN; HCT-116; M14; T47D; UO-31.
Experiment in all cases: inhibition of tumour cell growth, NCI panel, 48 h

Turning to `COC(=O)CC1C(C)(C)C(=O)C2CC3=C4CC(=O)OC(c5ccoc5)C4(C)CCC3C1(C)C2=O` (centres undefined), the GI50 in the test on BT-549, in the test on COLO 205, in the test with EKVX, in the test with HCC 2998, in the test on NCI/ADR-RES and in the test with NCI-H23 was > 100 µM (inactive) in each case. Besides, the GI50 with SF-539, in the test with NCI-H522, in the test with NCI-H226, in the test on CAKI-1, with HOP-92 and in the test with SNB-75 was > 100 µM (inactive) each time. The GI50 in the test with OVCAR-8, in the test with MDA-MB-435, in the test on LOX IMVI, with ACHN, in the test on HCT-116 and in the test with M14 was > 100 µM (inactive) throughout. The GI50 in the test with T47D is > 100 µM (inactive).
Regarding `CN1C(NN)=NS(=O)(=O)c2ccccc21`, the GI50 in the test on BT-549, in the test with COLO 205, with EKVX, in the test with HCC 2998, in the test on NCI/ADR-RES and in the test with NCI-H23 was > 100 µM (inactive) each time. Also, the GI50 with SF-539, in the test with UO-31, with NCI-H522, with NCI-H226, with CAKI-1 and in the test on HOP-92 was > 100 µM (inactive) throughout. In addition, the GI50 in the test on OVCAR-8, with MDA-MB-435, in the test with LOX IMVI, with ACHN, with HCT-116 and in the test on M14 was > 100 µM (inactive) throughout. Also, in the test on T47D, the GI50 is > 100 µM (inactive).
As to `CCN(CC)/C(Cl)=C(Cl)\C(=C1\Nc2ccc(OC)cc21)[N+](=O)[O-]`, the GI50 with BT-549 was 37.1 µM (inactive); in the test with COLO 205, 43.4 µM (inactive); with EKVX, 30.1 µM (inactive); in the test on HCC 2998, > 100 µM (inactive); in the test on NCI/ADR-RES, 70.6 µM (inactive); in the test on NCI-H23 it was 56.6 µM (inactive). Moreover, the GI50 in the test on UO-31 is 95.1 µM (inactive); with NCI-H522, 20.2 µM (inactive); in the test on NCI-H226 it was 18.9 µM (inactive); in the test with CAKI-1 it was 59 µM (inactive); with HOP-92, > 100 µM (inactive); in the test on SNB-75, 15.3 µM (inactive). The GI50 in the test with OVCAR-8 is 63.4 µM (inactive); in the test on MDA-MB-435, 37.2 µM (inactive); in the test on LOX IMVI, 38.7 µM (inactive); with ACHN it was 98.2 µM (inactive); in the test on HCT-116 it was 44.6 µM (inactive); with M14, > 100 µM (inactive). Besides, the GI50 with T47D is 24.6 µM (inactive).
Take `CC1CC[C@@]2(OC1)OC1C[C@H]3[C@@H]4CC=C5CC(OC6OC(CO)C(OC7OC(CO)C(O)C(OC8OCC(O)C(O)C8O)C7OC7OC(CO)C(O)C(O)C7O)C(O)C6O)CCC5(C)[C@H]4CCC3(C)C1[C@@H]2C` (some centres undefined): the GI50 with BT-549 is 4.38 µM (inactive); in the test with COLO 205, 4.59 µM (inactive); with EKVX, 4.67 µM (inactive); with HCC 2998, 4.68 µM (inactive); in the test on NCI/ADR-RES it was 5.97 µM (inactive); in the test on NCI-H23 it was 5.64 µM (inactive). The GI50 in the test on SF-539 was 3.6 µM (inactive); with NCI-H522, 4.72 µM (inactive); with NCI-H226, 13.3 µM (inactive); with CAKI-1, 4.95 µM (inactive); with HOP-92, > 25 µM (inactive); in the test with SNB-75, 7.69 µM (inactive). Further, the GI50 in the test with OVCAR-8 was 4.61 µM (inactive); with MDA-MB-435, 5.78 µM (inactive); in the test on LOX IMVI it was 4.48 µM (inactive); with ACHN, 4.97 µM (inactive); with HCT-116, 4.44 µM (inactive); with M14 it was 11.2 µM (inactive). Further, in the test with T47D, the GI50 is 5.71 µM (inactive).
Turning to `COc1ccc(S(=O)(=O)n2c3c(c4ccccc42)[C@@H]2[C@@H](CCCN2C(=O)C[S+]([O-])c2ccc(C)cc2)[C@H](Cl)C3)cc1` (some centres undefined), the GI50 with BT-549 is 5.83 µM (inactive); in the test with COLO 205 it was > 100 µM (inactive); with EKVX it was > 100 µM (inactive); in the test with HCC 2998, > 100 µM (inactive); with NCI/ADR-RES, > 100 µM (inactive); in the test with NCI-H23, > 100 µM (inactive). Further, the GI50 in the test on SF-539, in the test with UO-31, in the test on NCI-H522, in the test with NCI-H226, in the test on CAKI-1 and with HOP-92 was > 100 µM (inactive) in each case. Besides, the GI50 in the test with SNB-75, with OVCAR-8, in the test with MDA-MB-435, with LOX IMVI, with HCT-116 and in the test with M14 was > 100 µM (inactive) each time. The GI50 in the test with T47D is > 100 µM (inactive).
Consider `COc1cc2c(cc1OC)CC(N=[N+]=[N-])c1cc(OC)c(OC)cc1/C=C\2` (centres undefined), for which the GI50 in the test with BT-549 was 0.826 µM (active); in the test with COLO 205 it was 37.4 µM (inactive); with EKVX, 43.2 µM (inactive); with HCC 2998, 81.7 µM (inactive); with NCI/ADR-RES, 25.2 µM (inactive); in the test with SF-539, 39.9 µM (inactive). Also, the GI50 is 38.5 µM (inactive) in the test on UO-31; 50.9 µM (inactive) in the test on NCI-H522; 3.18 µM (inactive) in the test with NCI-H226; 21 µM (inactive) in the test with CAKI-1; 12.9 µM (inactive) in the test with HOP-92; 16.6 µM (inactive) in the test with SNB-75. Moreover, the GI50 was 18.4 µM (inactive) in the test with OVCAR-8; 10.8 µM (inactive) in the test on MDA-MB-435; 40.6 µM (inactive) in the test on LOX IMVI; 59 µM (inactive) in the test with ACHN; 28.7 µM (inactive) with HCT-116; 24.2 µM (inactive) with M14. Further, in the test with T47D, the GI50 is 75 µM (inactive).
For the compound `CC(=O)OC(Cn1cncn1)(Cn1cncn1)c1ccc(Cl)cc1Cl`, the GI50 in the test on BT-549, in the test with COLO 205, in the test on EKVX, with HCC 2998, in the test with NCI/ADR-RES and in the test with SF-539 was > 100 µM (inactive) in each case. The GI50 in the test with UO-31, in the test on NCI-H522, in the test with NCI-H226, with CAKI-1, with HOP-92 and in the test on SNB-75 was > 100 µM (inactive) each time. Further, the GI50 in the test on OVCAR-8, in the test with MDA-MB-435, with LOX IMVI, in the test on M14 and in the test with T47D was > 100 µM (inactive) throughout.
Consider `O=S(=O)(O)C1CCC(O)C2NCCCC21` (centres undefined), for which the GI50 in the test with BT-549, in the test on COLO 205, with EKVX, with HCC 2998, with NCI/ADR-RES and in the test with SF-539 was > 100 µM (inactive) in each case. Further, the GI50 in the test with UO-31, in the test on NCI-H522, in the test on NCI-H226, in the test with CAKI-1, in the test on HOP-92 and in the test on SNB-75 was > 100 µM (inactive) each time. For the same compound, the GI50 in the test with OVCAR-8, in the test on MDA-MB-435, in the test with LOX IMVI, with ACHN, with HCT-116 and with M14 was > 100 µM (inactive) in each case. Further, the GI50 in the test on T47D was > 100 µM (inactive).
With `COc1cc2c(cc1OC)C(=O)/C(=C/c1cc(Cl)cc(Cl)c1)C2`, the GI50 in the test on BT-549 was 7.26 µM (inactive); in the test with COLO 205, 6.21 µM (inactive); with EKVX, 19.8 µM (inactive); in the test on HCC 2998 it was 0.351 µM (active); in the test with NCI/ADR-RES, 1.76 µM (inactive); in the test on NCI-H23, 7.66 µM (inactive). Besides, the GI50 in the test with SF-539 is 2.49 µM (inactive); in the test on UO-31 it was > 100 µM (inactive); in the test on NCI-H522 it was 2.04 µM (inactive); with NCI-H226, 3.87 µM (inactive); with CAKI-1, 4.33 µM (inactive); with HOP-92 it was 18.7 µM (inactive). The GI50 is 1.86 µM (inactive) with SNB-75; 1.7 µM (inactive) in the test with MDA-MB-435; 4.24 µM (inactive) with LOX IMVI; 7.91 µM (inactive) in the test with ACHN; 3.58 µM (inactive) with HCT-116; 4.18 µM (inactive) with M14. Besides, the GI50 in the test on T47D was 7.4 µM (inactive).
Turning to `c1ccc2c(NCCCCCCNc3c4ccccc4nc4ccccc34)c3ccccc3nc2c1`, the GI50 in the test with BT-549 was 1.5 µM (inactive); in the test on COLO 205, 0.235 µM (active); in the test with EKVX, 0.367 µM (active); in the test with HCC 2998 it was 0.171 µM (active); with NCI/ADR-RES, 17.9 µM (inactive); with NCI-H23, 0.274 µM (active). In addition, the GI50 was 0.108 µM (active) in the test with SF-539; 11.3 µM (inactive) in the test with UO-31; 0.0893 µM (active) with NCI-H522; 0.587 µM (active) in the test on NCI-H226; 1.53 µM (inactive) in the test on CAKI-1; 0.24 µM (active) with HOP-92. In addition, the GI50 with SNB-75 was 0.713 µM (active); with OVCAR-8 it was 0.289 µM (active); with MDA-MB-435, 0.887 µM (active); with LOX IMVI it was 0.105 µM (active); in the test with ACHN, 0.23 µM (active); with HCT-116 it was 0.0392 µM (active). Also, the GI50 in the test with M14 is 1.23 µM (inactive); in the test on T47D, 0.647 µM (active).
